Values of other authors, collected in paper PMC11206245 (Pharmaceuticals, 2024).
Read-outs that look alike come from different tables or passages of the source.

What was measured:
[1] = parameters: method as in PMID 22124669, PMID 20618337; details: humans; cited from earlier work
[2] = test system: dogs; parameters: method as in PMID 15986212; details: cited from earlier work

Structure (SMILES)	half-life [1] [h]	Toxicity outcome ([2]; 16 mg/m^2 orally)	Toxicity outcome ([2]; daily intravenous dose of 8 mg/m^2)	Toxicity outcome ([2]; intravenous daily doses of 16 mg/m^2)
CO[C@H]1/C=C\C=C(/C)C(=O)NC2=CC(=O)C(N)=C(C[C@@H](C)C[C@H](OC)[C@H](O)[C@@H](C)/C=C(\C)[C@@H]1OC(N)=O)C2=O [17-AG, 17-amino-geldanamycin]	6.2 to 7.6			
CO[C@H]1/C=C\C=C(/C)C(=O)NC2=CC(=O)C(NCCN(C)C)=C(C[C@@H](C)C[C@H](OC)[C@H](O)[C@@H](C)/C=C(\C)[C@@H]1OC(N)=O)C2=O [17-DMAG, 17-dimethylaminoethylamino-17-demetoxigeldanamycin]		Toxicity was also observed	Toxicity was also observed	fatal
